Patent publication US12239650B2, “Compounds for treating and preventing net associated complications” (The Australian National University, priority 2019, dated 2025)

How the values were obtained:
histones [1] = assay: Lipid bilayer assay (artificial lipid bilayers exposed to histones); conditions: for Average bilayer lifetime: histones alone 5.7±1.2, control 46±4; for Incidence of rapid bilayer rupture: within 0.3-0.5 min of histone addition, histones alone 28%
Method: Lipid bilayer assays. Artificial lipid bilayers, prepared as previously described (Rebbeck, R. T. et al. The beta(1a) subunit of the skeletal DHPR binds to skeletal RyR1 and activates the channel via its 35-residue C-terminal tail. Biophys J 100, 922-930 (2011).), separated symmetrical 150 mM or 250 mM KCl (pH ˜5.5) solutions. Histones (1 μM, 15.2 μg ml^−1) were added to bilayers alone or after 0.5-3 h incubation with 10 μM CBS (3.5 μg ml^−1) or 10 μM MTS (5.1 μg ml^−1) at ˜20° C. Current was recorded continuously after histone addition until the bilayers broke or the experiment was terminated.

histones [2] = assay: In-vivo histone toxicity assay; conditions: mice; for Relative potency in protecting from histone-induced tissue pathologies / Protection from histone-induced liver damage, generalised tissue injury and kidney failure (circulating ALT, LDH, creatinine): FIG. 6a; for Protection from histone-induced liver damage, generalised tissue injury and kidney failure (circulating ALT, LDH, creatinine): compound i.p. 10 min prior to i.v. histones 50 mg kg^−1, blood 4 h post-histones, concentration-dependent
Method: In-vivo histone toxicity assays. BALB/c female mice (5-6 weeks of age), that are more prone to histone-induced anemia and easier to inject i.v. at this young age than C57BL/6 mice, were injected i.p. with test compounds at concentrations indicated 10 min prior to i.v. injection of histones (50 mg kg^−1) in phosphate buffered saline. Retro-orbital bleeds were performed with glass Pasteur pipettes 10 min after histone injection and collected blood added to acid citrate dextrose (ACD), the 10 min blood sample being subjected to hematologic analyses for platelet and erythrocyte content using an ADVIA 2120i Hematology Analyzer. Spleens were also harvested at 10 min post-histone injection and splenic hemoglobin content quantified using a hemoglobin assay kit (Sigma-Aldrich). In the case of 4 h blood samples, male C57/BL/6 mice (6-8 weeks of age) were injected with test compounds and histones as above and plasma isolated and stored frozen for subsequent biochemical testing, with markers for liver (alanine aminotransferase, ALT), kidney (creatinine, Crea) and general tissue (lactate dehydrogenase, LDH) damage being determined by the Department of Pathology, The Canberra Hospital.

histones [3] = assay: Murine histone-induced deep vein thrombosis (DVT) model; assay type: in vivo; conditions: mice, histones 10 mg kg^−1 i.v., compound 50 mg kg^−1 i.v., 48 h, FIG. 6c
Method: Murine deep vein thrombosis (DVT) model. The procedure used is largely as previously described (Brill, A. et al. Neutrophil extracellular traps promote deep vein thrombosis in mice. J Thromb Haemost 10, 136-144 (2012)). […] The peritoneum and skin were closed following which all mice received an i.v. injection of histones via the tail vein (10 mg kg^−1) or an equivalent volume of saline followed 5 min later by an i.v. injection of test compounds (50 mg kg^−1) or saline. Mice were monitored for 48 h after which they were re-anesthetized, re-opened and any thrombi that had developed distal to the IVC stenosis were removed for analysis. Sham operated control animals received laparotomy and 90% ligation of the IVC, however the ligation was removed immediately after occlusion of the IVC.

[4] = Rat caecal ligation and puncture (CLP) assay for sepsis; assay type: in vivo; conditions: for Mortality in CLP model of sepsis: rats n=8/group, 50 mg kg^−1 i.p. 5 min pre-CLP and 5, 10, 15 h post-op, 20 h, FIG. 7a; for High ALT and creatinine levels (liver and kidney damage) in CLP rats: 50 mg kg^−1 i.p., versus untreated group, FIG. 7b
Method: Rat caecal ligation and puncture (CLP) assay for sepsis. […] Test compounds (50 mg kg^−1) dissolved in saline or an equivalent volume of saline only (Control cohort) were administered i.p. 5 min pre-CLP and 5, 10 and 15 h post-op until cessation of the experiment at 20 h. Sham-CLP rats underwent the same procedure, however, the caecum was not ligated or punctured and these rats received saline at the same times as above. At the conclusion of the experimental time period (20 h) or when morbidity required ethical euthanasia, the rats were anaesthetized and blood was collected via cardiac puncture into EDTA for subsequent analysis of liver (ALT) and kidney (creatinine) function by the Department of Pathology, The Canberra Hospital.

[5] = system: anti-proliferative effect of sepsis patients sera on HMEC-1; assay type: cell-based, human; conditions: HMEC-1, test compounds 200 μg ml^−1, FIG. 9d
Method: Detection and analysis of cytotoxicity of septic patient sera for endothelial cells. To measure the cytotoxic activity of septic patients sera for endothelial cells in-vitro, HMEC-1 were seeded into 96-well plates at 2.5×10^4 well^−1 in medium and grown at 37° C. in 5% CO2 for 48 h prior to the addition of 50 μl of patient serum in the presence/absence of DNase I (10 μg ml^−1), anti-human histone 3 and histone 4 rabbit pAbs (200 μg ml^−1) (BioVision), or test compounds (200 μg ml^−1) and incubated for 3 h. ^3H-thymidine (0.5 μCi, MP Biomedical) was then added to each culture well in 20 μl of HMEC-1 medium and incubated for a further 24 h. At the conclusion of the incubation period plates were subjected to 3 freeze/thaw cycles (−70° C. for 30 min, then 37±0.5° C. for 30 min) prior to harvesting and measurement of ^3H-thymidine incorporation. […] Filters were dried at 80° C. and placed in Omnifilter plates (Perkin Elmer) then 20 μl of Microscint-O scintillation fluid (Perkin Elmer) was added to each well and the plate sealed with TopSeal-A adhesive film (Perkin Elmer). ^3H-thymidine incorporation was measured using a TopCount NXT™ Microplate Scintillation and Luminescence Counter (Packard Bioscience). Results expressed as a percentage of the proliferation of HMEC-1 not exposed to patient sera.

[6] = histones 1 μM with 10 μM compound

Compound	Average bilayer lifetime (histones [1]; [6])	Incidence of rapid bilayer rupture (histones [1])	Relative potency in protecting from histone-induced tissue pathologies (histones [2])	Protection from histone-induced liver damage, generalised tissue injury and kidney failure (circulating ALT, LDH, creatinine) (histones [2])	Inhibition of histone-mediated DVT (histones [3])	Mortality in CLP model of sepsis [4]	High ALT and creatinine levels (liver and kidney damage) in CLP rats [4]	Effect on anti-proliferative activity of the 10 most inhibitory septic patient sera [5]	Bilayer lifetime compared with control lifetimes (histones [1]; [6])	Histone-induced thrombocytopenia and anaemia (histones [2]; 100 mg kg^−1 i.p., 10 min post-histones, FIG. 6b)
O=S(=O)(O)OC[C@H]1O[C@@H](O[C@H]2[C@H](OS(=O)(=O)O)[C@@H](OS(=O)(=O)O)C(OS(=O)(=O)O)O[C@@H]2COS(=O)(=O)O)[C@H](OS(=O)(=O)O)[C@@H](OS(=O)(=O)O)[C@@H]1OS(=O)(=O)O (stereo partly drawn) [CBS, cellobiose per-O-sulfate]	18 ± 4 min	5.8%	equally active	protected	almost totally inhibited	no mortality	not seen	significantly overrode		
O=S(=O)(O)OC[C@H]1O[C@H](O[C@H]2[C@H](OS(=O)(=O)O)[C@@H](OS(=O)(=O)O)C(OS(=O)(=O)O)O[C@@H]2COS(=O)(=O)O)[C@H](OS(=O)(=O)O)[C@@H](OS(=O)(=O)O)[C@@H]1O[C@H]1O[C@H](COS(=O)(=O)O)[C@@H](OS(=O)(=O)O)[C@H](OS(=O)(=O)O)[C@H]1OS(=O)(=O)O (stereo partly drawn) [MTS, maltotriose per-O-sulfate]	36 ± 5 min	2.5%	most potent	protected	almost totally inhibited	only one death	only partially reduced	did not	not significantly different from the control lifetimes	prevented
